Data as given in patent US11236066B2, “Crystalline forms of niraparib tosylate” (Apotex Inc., priority 2019, dated 2022).
Like-named read-outs stand apart in the source and are kept apart here.

Tests used:
[1] = cited from earlier work; for Hygroscopicity: description in WO 2018/183354 A1, 4-methylbenzenesulfonate
[2] = 900 mL 0.01 N HCl buffer, 50 rpm, sample compressed at 1.5 metric tons for 1 minute
Procedure: Intrinsic dissolution rate (IDR) measurements were performed using a Wood apparatus. Samples were prepared by compressing the sample at 1.5 metric tons for 1 minute. A dissolution medium consisting of 900 mL 0.01 N HCl buffer, and rotation speed of 50 rpm was used for each experiment.

[3] = 1 g sample, agitated in ball mill 2 hrs at 30 Hz, ambient relative humidity 60%
Procedure: Samples (1 g) were initially placed in a small glass dish inside a desiccator for 30 minutes. The initial electric field of each sample was then measured with a JCI 140 Static Monitor (John Chubb Instrumentation, England) wherein the height of the field meter from top of the glass dish was 2.5 cm. […] Each sample was then placed in a 20 mL plastic vial and agitated inside of a ball mill (Retsch Mixer Mill MM 301) for 2 hrs at 30 Hz. After the agitation period, each sample was returned to the glass dish and the electric field was measured. The ambient relative humidity during the experiments was 60%.

[4] = CHMP Assessment Report; cited from earlier work

Structure (SMILES) | Hygroscopicity [1] | Weight gain in DVS ([1]; up to 95% relative humidity (RH)) | Intrinsic Dissolution Rate [2] | Electric Field After Agitation [3] | Hygroscopicity ([1]; listed as crystalline Form I) | Biopharmaceutics Classification System (BCS) class [4]
Cc1ccc(S(=O)(=O)O)cc1.NC(=O)c1cccc2cn(-c3ccc([C@@H]4CCCNC4)cc3)nc12 [crystalline Form III, 2-{4-[(3S)-piperidin-3-yl]phenyl}-2H-indazole 7-carboxamide 4-methylbenzenesulfonate] | very hygroscopic | 15.8% |  |  |  | 
Cc1ccc(S(=O)(=O)O)cc1.NC(=O)c1cccc2cn(-c3ccc([C@@H]4CCCNC4)cc3)nc12 [Niraparib tosylate crystalline Form I, 2-{4-[(3S)-piperidin-3-yl]phenyl}-2H-indazole 7-carboxamide 4-methylbenzenesulfonate] |  |  | 0.1451 mg min^−1 cm^−2 | 0.50 kV | non-hygroscopic | Class II
